Data set [1] in a line: Solid stability test (long-term and accelerated lofting). The data set is classed as physicochemical. The source says: Each sample was separately put into a double-layer LDPE bag with each layer of LDPE bag sealed by a binding buckle. The bag was then put into an aluminum foil bag for heat sealing, and then put into a stability box under corresponding conditions for observation.

Data set [2] can be described thus: Hygroscopicity by dynamic vapor sorption (DVS). Type of data set: physicochemical. The text has this: SMS DVS intrinsic dynamic vapor sorption instrument
In data set [3] the target is T1, MNK2 (h) protein kinase (Homo sapiens, UniProt Q9HBH9).
T1 construct: purchased Eurofins Pharma Discovery Services UK Limited (KinaseProfiler service)
As to the kind of experiment: Inhibitory activity against MNK2 protein kinase (KinaseProfiler, 33P-ATP filter-binding). Type of data set: biochemical. To be noted: myelin basic protein substrate, 40 min at room temperature. On the procedure: Purpose of experiment: to test the inhibitory activity of the compound against MNK2 protein kinase Experimental materials: assay buffer: 8 mM 3-(N-morpholino)propanesulfonic acid, 0.2 mM disodium ethylenediaminetetraacetate, 0.01% polyoxyethylene lauryl ether, 5% glycerol, 0.1% β-mercaptoethanol and 1 mg of bovine serum albumin
Experimental operation: Mnk2 protein kinase inhibitory activity assays were performed using the KinaseProfiler™ service from Eurofins Pharma Discovery Services UK Limited. Serially diluted DMSO solutions containing the compound to be tested (3-fold serial dilution, starting from 10 μM), MNK2 (h) protein kinase and 0.33 mg/mL myelin basic protein were added to a freshly prepared buffer (pH=7.0), and then stirred homogeneously. The reaction was initiated by adding a mixture of ^33P-ATP (intensity of radioactivity: 10 μCi/μL) and 10 mM magnesium acetate. After the resulting mixture was reacted at room temperature for 40 min, the reaction was terminated by adding phosphoric acid to dilute to a concentration of 0.5%. […] After drying, the intensity of radioactivity was determined using the Filter-Binding method.
The protein kinase inhibitory activity of the compound was expressed as a percentage of the residual protein kinase activity relative to the blank substrate (DMSO alone). […]

Data set [4] in a line: Crystal form screening / stability in different solvents. The data set is classed as physicochemical. As to conditions: stirred at 50° C. for 3 h, XRPD. As to the method: About 50 mg of the compound of formula (II) was weighed out separately and dissolved in different solvents, the mixtures were stirred at 50° C. for 3 h. The reaction liquids were cooled to room temperature, filtered for collection, and dried in vacuum, and the obtained solids were tested by XRPD.

T1 sequence (Q9HBH9 whole entry): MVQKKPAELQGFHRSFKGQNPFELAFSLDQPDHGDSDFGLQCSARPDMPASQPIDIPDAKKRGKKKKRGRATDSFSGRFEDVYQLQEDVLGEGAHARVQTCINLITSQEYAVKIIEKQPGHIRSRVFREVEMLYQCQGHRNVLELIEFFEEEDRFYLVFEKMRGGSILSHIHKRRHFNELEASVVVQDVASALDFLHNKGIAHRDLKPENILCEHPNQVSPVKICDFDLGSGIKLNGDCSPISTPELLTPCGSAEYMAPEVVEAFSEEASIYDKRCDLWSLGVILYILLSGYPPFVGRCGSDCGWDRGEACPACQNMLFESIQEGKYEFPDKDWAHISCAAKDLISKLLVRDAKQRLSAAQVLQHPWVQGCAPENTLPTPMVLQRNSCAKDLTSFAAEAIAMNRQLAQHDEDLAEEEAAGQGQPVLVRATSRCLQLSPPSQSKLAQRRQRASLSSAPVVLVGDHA

For the compound `Cc1cc(Nc2ncnn3cc(OCCN4CCC(F)(F)C4)c(C)c23)c(=O)n2c1C(=O)NC21CCCC1`, the Crystal form result in data set [1] (25° C./60% RH, 12 months) is reported as “Crystal form A”; in data set [1] (25° C./60% RH, Day 0) it was “Crystal form A”; in data set [1] (40° C./75% RH, 6 months), “Crystal form A”; in data set [1] (40° C./75% RH, Day 0), “Crystal form A”. Further, the “hygroscopic weight gain ΔW” value in data set [2] (25° C. and 80% RH, DVS) is 1.179%. For the same compound, the “hygroscopicity (in words)” value in data set [2] (25° C. and 80% RH, DVS) was “relatively weak hygroscopicity”. Moreover, the “crystal form before and after the hygroscopic test” value in data set [2] (DVS 0%~95%~0% RH, 25° C.) is “not changed”.
Consider `Cc1cc(Nc2ncnn3cc(OCCN4CCC(F)(F)C4)c(C)c23)c(=O)n2c1C(=O)NC21CCCC1` [Compound of formula (I)], for which the IC50 – broadly, the point on the concentration scale where inhibition reaches its midpoint – in data set [3] was 17 nM.
`Cc1cc(Nc2ncnn3cc(OCCN4CCC(F)(F)C4)c(C)c23)c(=O)n2c1C(=O)NC21CCCC1` [compound of formula (II)]: the Crystal form entry in data set [4] (Acetonitrile) is on record as “Crystal form A”; in data set [4] (Ethanol), “Crystal form B”; in data set [4] (Methanol), “Crystal form A”; in data set [4] (n-Heptane), “Crystal form B”; in data set [4] (tert-Butyl methyl ether), “Crystal form A”.

Values taken from US20240254144A1, “SALT FORM OF PYRROLOTRIAZINE COMPOUND, CRYSTAL FORM THEREOF, AND PREPARATION METHOD THEREFOR” (JUMBO DRUG BANK CO., LTD., priority 2021, published 2024).
